“Also recorded” adds a separate entry of the source.
Tests used:
Format in all cases: cell-based, human
[1] = test system: HaCaT cells; assay: MTT assay of cell viability and proliferation after UVB radiation
Protocol: The human keratinocyte (HaCaT) cells were grown in Dulbecco's Modified Eagle's Medium containing 7 mg/L of inositol (38.8 μM), supplemented with 10% heat-inactivated fetal bovine serum, 1% L-glutamine, and 1% antibiotic (penicillin, streptomycin). Cells were maintained at 37° C. and 5% CO2. Na-IP-6 was diluted from a 100 mM stock solution to the required concentrations (0.05-2.0 mM) using cell culture medium as the diluent. UVB intensities of 15, 30, 60 and 120 mJ/cm^2 were used, which was obtained by varying cell exposure time to UVB light (80% of light output is in 290-320 nm UVB range).
HaCaT cells were grown to approximately 80-90% confluency. 100 μL of 1×10^4 cells/mL HaCaT cells were seeded into each well of four 96-well plates. Cells were treated with IP-6 (0-2.0 mM), and on days 0, 1, 2, and 3, 100 μL of 1 mg/mL of aqueous MTT dissolved in DMEM media was added to each well and plates were placed into the incubator (37° C. and 5% CO2) for 4 hours. 150 μL of DMSO was then added to dissolve the formazan products. The absorbance was read at 540 nm using an EL Ultra Micro-plate Reader. Results were recorded as mean absorbance for each set of groups. […]
To determine if IP-6 protects HaCaT cells from UVB-induced injury, The MTT assay was performed as done above. […] Results were recorded as the mean absorbance for each set of groups.

[2] = test system: HaCaT cells; assay: Cell attachment (crystal violet absorbance) after UVB radiation
Protocol: 5×10^4 HaCaT cells were seeded into each well of four 6-well tissue culture plates and incubated at 37° C. and 5% CO2 for 24 hours. One hour before UVB irradiation, two plates were treated with IP-6 (0 and 0.1 mM), one for IP-6 pre-treatment and the other for IP-6 pre-treatment and post-treatment. All four plates were then washed twice with PBS 1×, and a small amount of PBS 1× was added to the wells, which were irradiated at 30 mJ/cm^2. After UVB exposure, PBS was removed from the wells and DMEM media was added to each well. IP-6 (0.05 and 0.1 mM) was then added to the plates labeled no UVB exposure, IP-6 post-treatment, and pre-treatment and post-treatment. The cells were then incubated (37° C. and 5% CO2) for 18 hours. Following incubation, the cells were washed 4 times with PBS 1× (pH 7.4), then fixed with 4.0% formaldehyde for 15 minutes, and stained with 0.5% aqueous crystal violet for at least 5 minutes. Excess crystal violet was washed from the wells and the plates were left to dry. The dried crystal violet residue in each well was then dissolved in 500 μL of 30% acetic acid. The absorbance was read at 595 nm in triplicate in a 96-well plate using an EL Ultra Micro-plate Reader. Additionally, 5×10^4 HaCaT cells were plated into each well of ten 6-well plates as was done above. Before UVB irradiation, cells were washed twice with PBS 1×, and a small amount of PBS 1× was added to the wells. Cells were then exposed to no UVB, or 15, 30, 60, or 120 mJ/cm^2 intensities. Following exposure, cell media was added to the wells and cells were treated with IP-6 (0-2.0 mM). The cells were then incubated at 37° C. and 5% CO2. 18 hours after UVB exposure, cells were fixed with 4% formaldehyde, stained with 0.5% aqueous crystal violet and dissolved with 30% acetic acid as was done above. The absorbance was read in triplicate at 595 nm.

[3] = test system: HaCaT cells; assay: Cell cycle distribution by PI flow cytometry after UVB radiation
Protocol: (§1) HaCaT cells were plated in 60 mm tissue culture dishes for 24 hours. The cells were then either not exposed, or exposed, to 30 mJ/cm^2 UVB radiation and treated immediately with 0, 0.5 mM, or 1.0 mM IP-6. Cells were harvested 6 and 18 hours after UVB exposure. 5 μL of RNase (DNase-free) was added to 10^6 cells/mL. The cell suspension was incubated at 37° C. for 30 minutes. The suspension was then chilled on ice (2-8° C.). 100 μL of PI was added to the cell suspension (Cellular DNA flow cytometric analysis kit, Roche Diagnostics, Indianapolis, Ind.). DNA quantitation was performed on the same day by flow cytometry using FACS.

[4] = test system: HaCaT cells; assay: Annexin V and PI staining, flow cytometry (apoptotic, necrotic, viable cells) after UVB radiation; details: UVB-exposed
Protocol: as §1, with “FIG. 3. Effect of IP-6 and UVB radiation on cell cycle distribution of HaCaT cells. For annexin V and PI staining cells were either not exposed or exposed to 30 mJ/cm^2 UVB radiation, then either treated with 1.0 mM Na-IP-6 or not treated with IP-6. Eighteen hours later, cells were harvested and double stained with annexin V and PI and analyzed by flow cytometry. The number of cells that are present in apoptosis, necrosis or are viable are represented as percentages; p<0.001, as compared to the group exposed to UVB but not treated with IP-6. The concentration of inositol in the media is 38.8 μM. HaCaT” for “HaCaT”

[5] = test system: caspase-3 activation of HaCaT cells; assay: Fluorometric CaspACE assay of activated caspase-3 activity
Protocol: FIG. 4. Effect of IP-6 and UVB radiation on caspase-3 activation of HaCaT cells. To assess activated caspase-3 activity, cells were either not exposed or exposed to 30 mJ/cm^2 UVB radiation, and then either treated with 1.0 mM Na-IP-6 or not treated with IP-6. Eighteen hours later, cells were harvested and fluorometric CaspACE assays were performed. Activated caspase-3 activity is represented as relative fluorescence units. **Significant at p<0.01, as compared to the group exposed to UVB but not treated with IP-6. The concentration of inositol in the media is 38.8 μM.
HaCaT cells were plated in 60 mm tissue culture dishes for 24 hours. The cells were either exposed to 30 mJ/cm^2 UVB radiation or not exposed. […] 10 μL of sample was then combined with caspase assay buffer (312.5 mM HEPES (pH 7.5), 31.25% sucrose, 0.3125% CHAPS (3-[(3-cholamido-propyl)-dimethyl ammonio]-1 propane-sulfonate, 2% DMSO, 10 mM DTT) containing 50 μM caspase-3 substrate, Ac-DEVD-AMC, in white 96 well microtiter plates. Negative control wells included 2 μL of 2.5 mM specific peptide inhibitor of caspase-3 (Ac-DEVD-CHO). The plate was incubated at 30° C. for 1 hour. The free reaction product, AMC was then measured using a fluorescent plate reader with an excitation wavelength of 360 nm and an emission wavelength of 460 nm. Caspase-3 activity was reported as relative fluorescent intensity of AMC.

[6] = 0.5 mM IP-6, vs UVB without IP-6
[7] = 0.5 and 1.0 mM IP-6, vs UVB without IP-6, p<0.001

Question: Which “cell viability and proliferation (MTT)” value ([1]; UVB 15-120 mJ/cm^2, IP-6 0-2.0 mM added immediately after UVB, read 24 h later, p<0.001) does the source give for `O=P(O)(O)O[C@H]1[C@H](OP(=O)(O)O)[C@@H](OP(=O)(O)O)[C@H](OP(=O)(O)O)[C@@H](OP(=O)(O)O)[C@H]1OP(=O)(O)O` [IP-6, inositol hexaphosphate] here?
Answer: Its value is “increase in cell viability with increasing concentration of IP-6; also recorded: significant increase in relative cell viability with increasing IP-6 concentrations”.

Question: And the “cell viability (MTT), normal trend” value ([1]; normal trend with higher IP-6 concentration (without the UVB effect))?
Answer: Its value is “decrease in cell viability with higher concentration of IP-6”.

Question: What about the cell attachment ([2]; UVB 15 mJ/cm^2, 18 h, higher IP-6 concentrations (1.0 and 2.0 mM), vs non-IP-6 treated group) of the same compound?
Answer: Its cell attachment is “decrease in cell attachment”.

Question: And the cell attachment ([2]; UVB 15 mJ/cm^2, 18 h, lower IP-6 concentrations, vs non-IP-6 treated group)?
Answer: The cell attachment was “increase in cell attachment”.

Question: What about the cell attachment ([2]; UVB 30 mJ/cm^2, 18 h, vs irradiated cells without IP-6, p<0.01 (FIG. 2: 0.5, 1.0 and 2.0 mM)) of the same compound?
Answer: Its cell attachment is “significant increase in HaCaT cell attachment with increasing concentrations of IP-6”.

Question: And the cell attachment ([2]; UVB 60 mJ/cm^2, 18 h, vs irradiated cells without IP-6)?
Answer: The cell attachment was “decrease in cell attachment”.

Question: What about the cell attachment ([2]; UVB 120 mJ/cm^2, 18 h, vs irradiated cells without IP-6) of the same compound?
Answer: Its cell attachment is “decrease in cell attachment”.

Question: What about the “G2M phase, 1.0 mM vs 0.5 mM treatment” value ([3]; 18 hours after UVB 30 mJ/cm^2) of the same compound?
Answer: The value was “comparable”.

Question: And the “effect on different phases of the cell cycle, 6 vs 18 hour” value ([3]; UVB 30 mJ/cm^2, IP-6 0.5 or 1.0 mM)?
Answer: Its value is “no time-dependent differences”.

Question: What about the “percentage of apoptotic cells” value [4, 6] of the same compound?
Answer: The value was “significant decrease”.

Question: What about the “percentage of necrotic cells” value [4, 6] of the same compound?
Answer: The value was “significant decrease”.

Question: And the “percentage of viable cells” value [4, 6]?
Answer: Its value is “significant increase”.

Question: What about the “apoptotic, necrotic and viable cells, effects relative to 0.5 mM” value ([4]; 1.0 mM IP-6) of the same compound?
Answer: The value was “much more pronounced”.

Question: What about the “apoptotic cells, dose dependence” value [4, 7] of the same compound?
Answer: Its value is “dose-dependent decrease”.

Question: And the “necrotic cells, dose dependence” value [4, 7]?
Answer: Its value is “dose-dependent decrease”.

Question: What about the viable cells [4, 7] of the same compound?
Answer: The viable cells was “increase in viable cells”.

Question: And the “activated caspase-3 activity” value ([5]; 1.0 mM IP-6, no UVB, 18 hours, vs control group)?
Answer: Its value is “increase in activated caspase-3 activity”.

Question: And the “activated caspase-3 activity” value ([5]; UVB 30 mJ/cm^2 + 1.0 mM IP-6, 18 hours, vs UVB without IP-6, p<0.01)?
Answer: Its value is “significantly lowered”.
